Tested on: up-regulation of ICAM-1 (CD54) by IFNγ in U937 human monocytic cells
Test: U937 IFNγ ICAM1 FACS Assay
Format: cell-based
Settings: U937 cells stimulated with IFNγ; ICAM-1 expression by FACS; read-out: IC50, Example 44
Procedure, shortened: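 U937 cells in 10% FCS RPMI were preincubated 30 min at 37 °C with an 8-point, 3-fold compound dilution series in duplicate, then stimulated with IFNγ for 18–24 h. Surface ICAM-1 was stained with APC anti-ICAM-1 and read by flow cytometry as geometric mean on live-gated cells. EC50 was derived.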

Compound	IC50 [nM]
CNS(=O)(=O)c1cc(Nc2ncc(F)c(Nc3ccc4c(c3)CCN4S(C)(=O)=O)n2)ccc1C [VII-62, 5-Fluoro-N2-[3-(N-methylaminosulfony)-4-methylphenyl]-N4-[4-(1-methylsulfonyl)indolin-5-yl]-2,4-pyrimidinediamine]	496
CS(=O)(=O)N1CCc2cc(Nc3nc(Nc4ccc(S(N)(=O)=O)cc4)ncc3F)ccc21 [VII-63]	6030
COc1ccc(Nc2nc(Nc3cc(C)c4c(c3)S(=O)(=O)NC=N4)ncc2F)cc1Cl [VIII-3, N4-(3-Chloro-4-methoxyphenyl)-5-fluoro-N2-(5-methyl-2H-1,1-dioxo-1,2,4-benzothiadiazin-7-yl)-2,4-pyrimidinediamine]	10100
N2-(3-Aminosulfonyl-4-methylphenyl)-5-fluoro-N4-[4-(2-pyridinyl)-3-fluoromethyleneoxyphenyl]-2,4-pyrimidinediamine [Compound I-172]	1100
N2-(3-Aminosulphonylphenyl)-5-fluoro-N4-[4-(3-pyridinylmethyl)benzo[1,4]oxazin-7-yl]-2,4-pyrimidinediamine [VII-55]	1670
N2-(3-Aminosulphonylphenyl)-5-fluoro-N4-[4-(3-pyridinylmethyl)benzo[1,4]oxazin-7-yl]-2,4-pyrimidinediamine [VII-56]	1930
N2-[3-Aminosulfonyl-4-(4-methylpiperazine-1-yl)phenyl]-N4-(3-cyanomethylene-1H-indol-6-yl)-5-fluoro-2,4-pyrimidinediamine [IX-17]	1980
N2-[3-Aminosulfonyl-4-(4-methylpiperazine-1-yl)phenyl]-N4-(3-cyanomethylene-1H-indol-7-yl)-5-fluoro-2,4-pyrimidinediamine [IX-18]	6660
N4-(3-Chloro-4-cyanomethyleneoxyphenyl)-5-fluoro-N2-(5-methyl-2H-1,1-dioxide-1,2,4-benzothiadiazin-7-yl)-2,4-pyrimidinediamine [VIII-2]	8550
